For 47 compounds, IC50 results are on record in patent publication US20110071158A1, “NEW COMPOUNDS” (BOEHRINGER INGELHEIM INTERNATIONAL GMBH, priority 2009, published 2011).

T1 sequence (Q05397 whole entry): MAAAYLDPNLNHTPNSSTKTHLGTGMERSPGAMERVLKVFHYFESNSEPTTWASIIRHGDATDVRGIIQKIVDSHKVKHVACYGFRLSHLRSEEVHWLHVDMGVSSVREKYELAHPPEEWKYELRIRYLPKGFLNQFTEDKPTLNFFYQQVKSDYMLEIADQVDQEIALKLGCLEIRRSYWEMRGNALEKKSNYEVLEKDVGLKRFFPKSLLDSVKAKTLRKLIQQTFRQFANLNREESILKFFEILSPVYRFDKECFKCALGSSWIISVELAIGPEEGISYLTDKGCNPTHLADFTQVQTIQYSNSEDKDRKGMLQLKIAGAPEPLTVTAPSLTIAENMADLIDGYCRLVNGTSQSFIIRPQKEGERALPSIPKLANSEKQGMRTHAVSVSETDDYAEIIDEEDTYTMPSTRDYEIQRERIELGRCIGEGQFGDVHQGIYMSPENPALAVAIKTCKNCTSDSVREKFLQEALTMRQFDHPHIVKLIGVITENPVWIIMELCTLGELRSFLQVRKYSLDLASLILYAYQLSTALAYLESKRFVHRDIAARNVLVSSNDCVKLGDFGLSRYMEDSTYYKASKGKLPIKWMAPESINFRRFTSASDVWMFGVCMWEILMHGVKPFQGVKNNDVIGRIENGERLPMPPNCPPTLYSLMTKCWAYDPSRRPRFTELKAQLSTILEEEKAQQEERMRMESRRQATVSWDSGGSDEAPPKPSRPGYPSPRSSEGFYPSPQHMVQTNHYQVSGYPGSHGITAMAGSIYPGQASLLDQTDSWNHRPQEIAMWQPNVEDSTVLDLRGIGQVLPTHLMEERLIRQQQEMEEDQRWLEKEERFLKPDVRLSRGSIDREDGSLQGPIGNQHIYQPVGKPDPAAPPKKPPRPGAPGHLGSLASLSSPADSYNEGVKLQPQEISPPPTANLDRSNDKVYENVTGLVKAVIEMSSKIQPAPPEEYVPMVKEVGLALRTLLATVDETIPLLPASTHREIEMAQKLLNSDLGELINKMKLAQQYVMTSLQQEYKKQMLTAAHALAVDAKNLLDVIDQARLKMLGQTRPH

This assay addresses T1, PTK2 enzyme (Homo sapiens, UniProt Q05397).
T1 construct: purchased Invitrogen PV3832
The experiment in a line: PTK2 enzyme test, Assay 1 (DELFIA, poly-Glu-Tyr substrate, antibody PT60). Conditions: Assay 1 (values without *); 1 h pre-incubation, 2% DMSO. In kind it is biochemical. The protocol: This test uses active PTK2 enzyme (Invitrogen Code PV3832) and poly-Glu-Tyr (4:1, Sigma P-0275) as the kinase substrate. The kinase activity is detected through the phosphorylation of the substrate in a DELFIA™ assay. The phosphorylated substrate is detected with the europium-labelled phosphotyrosine antibody PT60 (Perkin Elmer, No.: AD00400).
In order to determine concentration-activity curves with PTK2-inhibitors the compounds are serially diluted in 10% DMSO/H2O and 10 μL of each dilution are placed in each well of a 96-well microtitre plate (clear plate with a U-shaped base, Greiner No. 650101) (the inhibitors are tested in duplicates) and mixed with 10 μL/well of PTK2 kinase (0.01 μg/well). PTK2 kinase has been correspondingly diluted beforehand with kinase dilution buffer (20 mM TRIS/HCl pH 7.5, 0.1 mM EDTA, 0.1 mM EGTA, 0.286 mM sodium orthovanadate, 10% glycerol with the addition of freshly prepared BSA (fraction V, 1 mg/mL) and DTT (1 mM)). The test compound and the PTK2 kinase are pre-incubated for 1 h at RT and shaken at 500 revolutions per min. The reaction is started by the addition of 10 μL/well poly (Glu,Tyr) substrate (25 μg/well poly (Glu, Tyr), 0.05 μg/well biotinylated poly (Glu,Tyr) dissolved in 250 mM TRIS/HCl pH 7.5, 9 mM DTT)—the final concentration of DMSO is 2%. Then 20 μL of ATP Mix (30 mM TRIS/HCl pH 7.5, 0.02% Brij, 0.2 mM sodium orthovanadate, 10 mM magnesium acetate, 0.1 mM EGTA, 1× phosphatase inhibitor cocktail 1 (Sigma, No.: P2850), 50 μM ATP (Sigma, No.: A3377; 15 mM stock solution)) are added. After 1 h of kinase reaction (the plates are shaken at 500 rpm), the reaction is stopped by the addition of 12 μL/well 100 mM EDTA, pH 8.0 and shaken for a further 5 min at RT (500 rpm). 55 μL of the reaction mixture are transferred into a streptavidin plate (Strepta Well High Bind (transparent, 96-well) made by Roche, No.: 11989685001) and incubated for 1 h at RT (shaking at 500 rpm). Then the microtitre plate is washed three times with 200 μL/well D-PBS (Invitrogen, No. 14190). 100 μL of a solution containing DELFIA Eu-N1 Anti-Phosphotyrosine PT60 antibody (Perkin Elmer, No.: AD0040, diluted 1:2000 in DELFIA test buffer (Perkin Elmer, No.: 1244-111)) is then added and the mixture is incubated for 1 h at RT (shaking at 500 rpm). Then the plate is washed three times with 200 μL/well DELFIA washing buffer (Perkin Elmer, No.: 1244-114), 200 μL/well strengthening solution (Perkin Elmer, No.: 1244-105) are added and the mixture is incubated for 10 min at RT (shaking at 300 rpm).
The time-delayed europium fluorescence is then measured in a microtitre plate reader (VICTOR^3, Perkin Elmer). […] Wells that contain test buffer instead of enzyme are used as a control of the background kinase activity.
The IC50 values are determined from analyses of the concentration activity by iterative calculation with the aid of a sigmoid curve analysis algorithm (FIFTY, based on Graph PAD Prism Version 3.03) with a variable Hill coefficient.
A word on the IC50: it is the concentration that gives 50% inhibition. Low readings indicate inhibition by little substance, high ones a need for much substance. Take `CCNC(=O)c1ccc(Nc2ncc(Br)c(N[C@@H]3CCCC[C@H]3NC(C)=O)n2)c(OC)c1` [Example I-48]: the IC50 came out at 2 nM.

On to `COc1cc(C(=O)N(C)C)ccc1Nc1ncc(Br)c(N[C@@H]2CCCC[C@H]2NC(C)=O)n1` [Example I-49], for which the IC50 amounted to 10 nM. The figure for `COc1cc(C(=O)NC2CCN(C)CC2)ccc1Nc1ncc(Br)c(N[C@@H]2CCCC[C@H]2NC(C)=O)n1` [Example I-50] is 1 nM. In the case of `CCN1CCC(NC(=O)c2ccc(Nc3ncc(Br)c(N[C@@H]4CCCC[C@H]4NC(C)=O)n3)c(OC)c2)CC1` [Example I-51] it was 1 nM; in that of `COCCNC(=O)c1ccc(Nc2ncc(Br)c(N[C@@H]3CCCC[C@H]3NC(C)=O)n2)c(OC)c1` [Example I-52], 2 nM; in that of `COc1ccccc1Nc1ncc(Br)c(N[C@@H]2CCCC[C@H]2NC(C)=O)n1` [Example I-53], 8 nM. Take `COc1ccc(Nc2ncc(Br)c(N[C@@H]3CCCC[C@H]3NC(C)=O)n2)c(OC)c1` [Example I-54]: 4 nM corresponded to half-maximal inhibition (IC50). In the case of `COc1cc(C(=O)NC2CCN(C3CC3)CC2)ccc1Nc1ncc(Br)c(N[C@@H]2CCCC[C@H]2NC(C)=O)n1` [Example I-55] it was 2 nM; in that of `CNC(=O)c1ccc(Nc2ncc(Cl)c(N[C@@H]3CCCC[C@H]3NC(C)=O)n2)c(OC)c1` [Example I-56], 3 nM; in that of `COc1cc(C(=O)N(C)C)ccc1Nc1ncc(Cl)c(N[C@@H]2CCCC[C@H]2NC(C)=O)n1` [Example I-57], 26 nM. For the compound `CCNC(=O)c1ccc(Nc2ncc(Cl)c(N[C@@H]3CCCC[C@H]3NC(C)=O)n2)c(OC)c1` [Example I-58], the IC50 amounted to 3 nM. In the case of `COc1cc(C(=O)NCCN(C)C)ccc1Nc1ncc(Cl)c(N[C@@H]2CCCC[C@H]2NC(C)=O)n1` [Example I-59] it was 1 nM. `COc1cc(C(=O)NC2CCOCC2)ccc1Nc1ncc(Cl)c(N[C@@H]2CCCC[C@H]2NC(C)=O)n1` [Example I-60] came in with an IC50 of 3 nM. The figure for `CCN1CCC(NC(=O)c2ccc(Nc3ncc(Cl)c(N[C@@H]4CCCC[C@H]4NC(C)=O)n3)c(OC)c2)CC1` [Example I-61] is 1 nM. In turn, `COc1cc(C(=O)NC2CCCN(C)C2)ccc1Nc1ncc(Cl)c(N[C@@H]2CCCC[C@H]2NC(C)=O)n1` (some centres unmarked) [Example I-62] came in with an IC50 of 1 nM. Regarding `COc1cc(C(=O)NC2CCN(C3CC3)CC2)ccc1Nc1ncc(Cl)c(N[C@@H]2CCCC[C@H]2NC(C)=O)n1` [Example I-63], the IC50 came out at 3 nM.

Regarding `COc1cc(C(=O)NC2CCN(C)CC2)ccc1Nc1ncc(Cl)c(N[C@@H]2CCCC[C@H]2NC(C)=O)n1` [Example I-64], the IC50 worked out at 1 nM.

The compound `COCCNC(=O)c1ccc(Nc2ncc(Cl)c(N[C@@H]3CCCC[C@H]3NC(C)=O)n2)c(OC)c1` [Example I-65] had an IC50 of 3 nM. Take `COc1cc(C(=O)NC2CCN(C)CC2)ccc1Nc1ncc(C(F)(F)F)c(N[C@@H]2CCCC[C@H]2NC(=O)CN2CCN(C)CC2)n1` [Example I-66]: the IC50 amounted to 200 nM. In the case of `COc1ccc(Nc2ncc(Cl)c(N[C@@H]3CCCC[C@H]3NC(C)=O)n2)c(OC)c1` [Example I-67] it was 10 nM. In turn, `COc1cc(C(=O)NC2CCN(C)CC2)ccc1Nc1ncc(C(F)(F)F)c(N[C@@H]2CCCC[C@H]2NC(=O)CN2CCOCC2)n1` [Example I-68] came in with an IC50 of 200 nM. Against the preceding compound, the IC50 is about 20-fold higher. In the case of `COc1ccc(Nc2ncc(C(F)(F)F)c(N[C@@H]3CCCC[C@H]3NC(=O)CC(C)C)n2)c(OC)c1` [Example I-70] it was 440 nM; in that of `CCN1CCC(NC(=O)c2ccc(Nc3ncc(C(F)(F)F)c(N[C@@H]4CCCC[C@H]4N(C)C(C)=O)n3)c(OC)c2)CC1` [Example I-71], 10 nM; in that of `COc1cc(C(=O)N(C)C)ccc1Nc1ncc(C(F)(F)F)c(N[C@@H]2CCCC[C@H]2N(C)C(C)=O)n1` [Example I-72], 31 nM. `COc1cc(C(=O)NCCN(C)C)ccc1Nc1ncc(C(F)(F)F)c(N[C@@H]2CCCC[C@H]2N(C)C(C)=O)n1` [Example I-73]: the IC50 was 0.95 nM.

As for `COc1cc(C(=O)NC2CCCN(C)C2)ccc1Nc1ncc(C(F)(F)F)c(N[C@@H]2CCCC[C@H]2N(C)C(C)=O)n1` (some centres unmarked) [Example I-74], the IC50 is 1 nM. The figure for `CNCc1ccc(Nc2ncc(C(F)(F)F)c(N[C@@H]3CCCC[C@H]3NC(=O)C3CCC3)n2)c(OC)c1` [Example I-75] is 3 nM; for `CNCc1ccc(Nc2ncc(C(F)(F)F)c(N[C@@H]3CCCC[C@H]3NC(C)=O)n2)c(OC)c1` [Example I-76] it is 1 nM. Regarding `CCC(=O)N[C@@H]1CCCC[C@H]1Nc1nc(Nc2ccc(CNC)cc2OC)ncc1C(F)(F)F` [Example I-77], the IC50 was determined as 2 nM. For `CNCc1ccc(Nc2ncc(C(F)(F)F)c(N[C@@H]3CCCC[C@H]3NC(=O)COC)n2)c(OC)c1` [Example I-78], it took 4 nM to reach half-maximal inhibition (IC50). `CNCc1ccc(Nc2ncc(C(F)(F)F)c(N[C@@H]3CCCC[C@H]3NC(=O)C(C)C)n2)c(OC)c1` [Example I-79] had an IC50 of 3 nM. This IC50 and that of the compound before are within 1.5-fold of each other. In the case of `COc1cc(C(=O)NC2CCN(C)CC2)ccc1Nc1ncc(C(F)(F)F)c(N[C@@H]2CCCC[C@H]2N(C)C(=O)C(C)C)n1` [Example I-80] it was 9 nM; in that of `CCC(=O)N(C)[C@@H]1CCCC[C@H]1Nc1nc(Nc2ccc(C(=O)NC3CCN(C)CC3)cc2OC)ncc1C(F)(F)F` [Example I-81], 3 nM; in that of `COc1cc(C(=O)NC2CCN(C)CC2)ccc1Nc1ncc(C(F)(F)F)c(N[C@@H]2CCCC[C@H]2N(C)C(C)=O)n1` [Example I-82], 0.98 nM. The figure for `COc1cc(C(=O)NC2CCN(C)CC2)ccc1Nc1ncc(C(F)(F)F)c(N[C@@H]2CCCC[C@H]2N(C)C(=O)C2CC2)n1` [Example I-83] is 4 nM; for `COc1cc(C(=O)NC2CCN(C)CC2)ccc1Nc1ncc(C(F)(F)F)c(N[C@@H]2CCCC[C@H]2N(C)C(=O)C2CCC2)n1` [Example I-84] it is 37 nM; for `CNC(=O)c1cc(OC)c(Nc2ncc(C(F)(F)F)c(N[C@@H]3CCCC[C@H]3NC(C)=O)n2)cc1F` [Example I-85] it is 2 nM.

As to `COc1cc(C(=O)NC2CCOCC2)c(F)cc1Nc1ncc(C(F)(F)F)c(N[C@@H]2CCCC[C@H]2NC(C)=O)n1` [Example I-86], half-maximal inhibition (IC50) required 7 nM. The compound `CCN1CCC(NC(=O)c2cc(OC)c(Nc3ncc(C(F)(F)F)c(N[C@@H]4CCCC[C@H]4NC(C)=O)n3)cc2F)CC1` [Example I-87] gave an IC50 of 2 nM. Take `COc1cc(C(=O)NC2CCCN(C)C2)c(F)cc1Nc1ncc(C(F)(F)F)c(N[C@@H]2CCCC[C@H]2NC(C)=O)n1` (some centres unmarked) [Example I-88]: the IC50 is 2 nM.

Compound `COc1cc(C(=O)O)ccc1Nc1ncc(C(F)(F)F)c(N[C@@H]2CCCC[C@H]2NC(C)=O)n1` [Example I-89] gave an IC50 of 9 nM.

As to `COC(=O)N(C)[C@@H]1CCCC[C@H]1Nc1nc(Nc2ccc(C(=O)NC3CCN(C)CC3)cc2OC)ncc1C(F)(F)F` [Example I-95], the IC50 was 7 nM. In the case of `COc1cc(C(=O)NC2CCN(C)CC2)ccc1Nc1ncc(C(F)(F)F)c(N[C@@H]2CCCC[C@H]2N2CCCC2=O)n1` [Example I-97] it was 2 nM. Compound `CCN(C(C)=O)[C@@H]1CCCC[C@H]1Nc1nc(Nc2ccc(C(=O)NC3CCN(C)CC3)cc2OC)ncc1C(F)(F)F` [Example I-99] gave an IC50 of 3 nM. This IC50 is about 1.5-fold higher than that of the compound before. In turn, `COc1cc(N2CCN(C)CC2)ccc1Nc1ncc(C(F)(F)F)c(N[C@@H]2CCCC[C@H]2N(C)C(C)=O)n1` [Example I-101] displayed an IC50 of 2 nM. This IC50 lies about 1.5-fold lower than the previous one. Take `COc1cc(C(=O)NC2CCN(C)CC2)ccc1Nc1ncc(C(F)(F)F)c(N[C@@H]2CCCC[C@H]2N(CC2CC2)C(C)=O)n1` [Example I-103]: the IC50 was found to be 7 nM. Take `COc1cc(C(=O)NC2CCN(C)CC2)ccc1Nc1ncc(C(F)(F)F)c(N[C@@H]2CCC[C@@H]2NC(C)=O)n1` [Example I-105]: the IC50 worked out at 38 nM.
